Results from US20260232670A1, “TYRO3 SELECTIVE INHIBITORS AND USES THEREOF” (THE UNIVERSITY OF NORTH CAROLINA AT CHAPEL HILL, priority 2023, published 2026).

Tests used:
Assay type in all cases: biochemical
MERTK = target: T1, MERTK (Homo sapiens, UniProt Q12866); test: Microfluidic capillary electrophoresis (MCE) kinase activity assay, Mer
T1 sequence (Q12866 21-999): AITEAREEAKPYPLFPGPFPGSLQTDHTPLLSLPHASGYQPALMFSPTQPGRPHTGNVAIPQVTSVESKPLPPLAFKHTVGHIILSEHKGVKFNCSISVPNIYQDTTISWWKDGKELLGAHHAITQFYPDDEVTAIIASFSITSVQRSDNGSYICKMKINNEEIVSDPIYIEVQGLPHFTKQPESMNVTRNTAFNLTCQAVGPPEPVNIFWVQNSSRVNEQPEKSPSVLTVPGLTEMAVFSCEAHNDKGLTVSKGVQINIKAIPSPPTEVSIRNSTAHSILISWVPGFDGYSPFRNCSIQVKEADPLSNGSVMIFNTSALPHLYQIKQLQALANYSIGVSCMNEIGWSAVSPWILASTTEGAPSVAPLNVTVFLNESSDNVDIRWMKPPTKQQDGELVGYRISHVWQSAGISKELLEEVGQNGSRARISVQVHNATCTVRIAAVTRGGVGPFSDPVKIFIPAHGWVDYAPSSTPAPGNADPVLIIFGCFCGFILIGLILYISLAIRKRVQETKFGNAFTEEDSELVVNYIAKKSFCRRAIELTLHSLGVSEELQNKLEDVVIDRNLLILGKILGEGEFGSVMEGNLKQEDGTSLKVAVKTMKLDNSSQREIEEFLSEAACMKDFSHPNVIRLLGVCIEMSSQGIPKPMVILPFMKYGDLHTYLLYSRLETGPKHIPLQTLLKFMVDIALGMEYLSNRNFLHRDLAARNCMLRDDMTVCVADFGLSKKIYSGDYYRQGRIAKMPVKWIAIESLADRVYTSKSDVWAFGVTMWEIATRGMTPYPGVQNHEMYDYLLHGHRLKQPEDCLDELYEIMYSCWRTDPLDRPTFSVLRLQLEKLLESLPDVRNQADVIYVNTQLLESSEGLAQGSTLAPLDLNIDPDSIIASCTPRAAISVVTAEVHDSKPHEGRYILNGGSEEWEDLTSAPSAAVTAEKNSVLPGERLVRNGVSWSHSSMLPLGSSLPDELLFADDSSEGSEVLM
Procedure: (§1) All reactions were terminated by addition of 20 μL of 70 mM EDTA. After a 180 min incubation, phosphorylated and unphosphorylated substrate peptides (Table 6) were separated in buffer supplemented with 1× CR-8 on a LabChip EZ Reader equipped with a 12-sipper chip. Data were analyzed using EZ Reader software.

TYRO3 = target: T2, TYRO3 (Homo sapiens, UniProt Q06418); test: Microfluidic capillary electrophoresis (MCE) kinase activity assay, Tyro3
T2 sequence (Q06418 41-890): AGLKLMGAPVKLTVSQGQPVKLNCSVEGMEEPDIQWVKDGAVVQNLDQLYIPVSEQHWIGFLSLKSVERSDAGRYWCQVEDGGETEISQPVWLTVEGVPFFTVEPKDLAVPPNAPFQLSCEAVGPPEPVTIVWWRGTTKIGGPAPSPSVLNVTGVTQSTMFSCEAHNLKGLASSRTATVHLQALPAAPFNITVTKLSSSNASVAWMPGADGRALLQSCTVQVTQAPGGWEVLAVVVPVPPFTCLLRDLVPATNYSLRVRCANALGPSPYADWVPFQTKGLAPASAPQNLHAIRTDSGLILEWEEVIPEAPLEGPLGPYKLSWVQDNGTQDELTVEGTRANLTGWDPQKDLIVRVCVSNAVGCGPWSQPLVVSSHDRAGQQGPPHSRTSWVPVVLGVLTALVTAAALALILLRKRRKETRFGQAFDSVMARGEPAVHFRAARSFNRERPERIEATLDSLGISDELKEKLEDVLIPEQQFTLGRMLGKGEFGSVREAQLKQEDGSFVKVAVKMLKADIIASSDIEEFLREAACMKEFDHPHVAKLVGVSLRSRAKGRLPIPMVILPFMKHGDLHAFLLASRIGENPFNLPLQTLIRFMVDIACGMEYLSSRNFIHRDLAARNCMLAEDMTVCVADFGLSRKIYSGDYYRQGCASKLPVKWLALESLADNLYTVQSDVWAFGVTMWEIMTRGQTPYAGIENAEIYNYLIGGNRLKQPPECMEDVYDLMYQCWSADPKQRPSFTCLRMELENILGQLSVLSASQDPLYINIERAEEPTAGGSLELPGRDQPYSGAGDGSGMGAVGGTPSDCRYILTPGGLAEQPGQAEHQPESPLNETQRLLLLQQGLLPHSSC
Procedure: as §1

AXL = target: T3, AXL (Homo sapiens, UniProt P30530); test: Microfluidic capillary electrophoresis (MCE) kinase activity assay, Axl; conditions: Table 2; MCE assay, ATP at Km
T3 sequence (P30530 26-894): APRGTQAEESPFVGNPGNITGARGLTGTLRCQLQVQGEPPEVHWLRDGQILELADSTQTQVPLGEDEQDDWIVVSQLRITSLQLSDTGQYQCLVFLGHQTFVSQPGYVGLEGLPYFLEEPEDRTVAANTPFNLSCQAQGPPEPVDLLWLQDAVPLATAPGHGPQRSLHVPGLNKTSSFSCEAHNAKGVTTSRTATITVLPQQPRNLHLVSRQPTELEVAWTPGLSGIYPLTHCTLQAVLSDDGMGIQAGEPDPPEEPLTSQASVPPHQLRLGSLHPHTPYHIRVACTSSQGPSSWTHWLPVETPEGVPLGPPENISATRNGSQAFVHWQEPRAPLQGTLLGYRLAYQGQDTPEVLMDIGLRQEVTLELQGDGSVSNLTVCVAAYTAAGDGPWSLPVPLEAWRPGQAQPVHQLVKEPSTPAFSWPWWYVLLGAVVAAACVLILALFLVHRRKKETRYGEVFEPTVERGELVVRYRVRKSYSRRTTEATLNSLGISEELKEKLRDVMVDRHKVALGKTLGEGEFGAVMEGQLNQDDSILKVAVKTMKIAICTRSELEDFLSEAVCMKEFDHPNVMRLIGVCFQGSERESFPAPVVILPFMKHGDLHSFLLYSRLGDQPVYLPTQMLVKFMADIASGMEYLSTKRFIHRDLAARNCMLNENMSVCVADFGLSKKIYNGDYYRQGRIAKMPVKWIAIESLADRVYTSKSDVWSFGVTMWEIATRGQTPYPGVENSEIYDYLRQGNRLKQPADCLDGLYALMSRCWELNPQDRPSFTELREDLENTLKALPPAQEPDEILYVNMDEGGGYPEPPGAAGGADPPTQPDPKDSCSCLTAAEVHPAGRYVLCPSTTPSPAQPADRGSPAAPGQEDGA
Procedure: as §1

Compound | IC50 (MERTK; Table 2, MCE assay, ATP at Km) [nM] | IC50 (TYRO3; Table 2, MCE assay, ATP at Km) [nM] | IC50 (AXL) [nM] | IC50 (MERTK; Table 8) [nM] | IC50 (TYRO3; Table 8) [nM] | IC50 (MERTK; Table 9) [nM] | IC50 (TYRO3; Table 9) [nM]
CN1CCN(Cc2ccc(-c3cn([C@H]4CC[C@H](O)CC4)c4nc(Nc5cc(F)cc(Cl)c5)ncc34)cc2)CC1 [Compound 7] | < 10 | < 10 | 10 to 100 | – | – | – | –
CN1CCN(Cc2ccc(-c3cn([C@H]4CC[C@H](O)CC4)c4nc(Nc5cc(Cl)c(F)c(Cl)c5)ncc34)cc2)CC1 [Compound 8] | 10 to 100 | < 10 | 10 to 100 | – | – | – | –
O[C@H]1CC[C@H](n2cc(-c3ccc(CN4CCC(F)(F)CC4)cc3)c3cnc(Nc4cc(C(F)(F)F)cc(C(F)(F)F)c4)nc32)CC1 [Compound 10] | 100 to 1000 | 10 to 100 | 100 to 1000 | – | – | – | –
O[C@H]1CC[C@H](n2cc(-c3ccc(CNCCN4CCOCC4)cc3)c3cnc(Nc4cc(C(F)(F)F)cc(C(F)(F)F)c4)nc32)CC1 [Compound 19] | 100 to 1000 | < 10 | 100 to 1000 | – | – | – | –
CN(C)C1CCN(Cc2ccc(-c3cn([C@H]4CC[C@H](O)CC4)c4nc(Nc5cc(F)cc(Cl)c5)ncc34)cc2)CC1 [Compound 22] | < 10 | < 10 | 10 to 100 | – | – | – | –
O[C@H]1CC[C@H](n2cc(-c3ccc(CN4CCC(F)(F)CC4)cc3)c3cnc(Nc4cc(F)cc(Cl)c4)nc32)CC1 [Compound 23] | 10 to 100 | < 10 | 100 to 1000 | – | – | – | –
CN1CCCN(Cc2ccc(-c3cn([C@H]4CC[C@H](O)CC4)c4nc(Nc5cc(F)cc(Cl)c5)ncc34)cc2)CC1 [Compound 24] | < 10 | < 10 | 10 to 100 | – | – | – | –
O[C@H]1CC[C@H](n2cc(-c3ccc(CN4CCSCC4)cc3)c3cnc(Nc4cc(F)cc(Cl)c4)nc32)CC1 [Compound 25] | 100 to 1000 | < 10 | 100 to 1000 | – | – | – | –
CC(C)(C)OC(=O)N1CCN(Cc2ccc(-c3cn([C@H]4CC[C@H](O)CC4)c4nc(Nc5cc(C(F)(F)F)cc(C(F)(F)F)c5)ncc34)cc2)CC1 [Compound 26] | 1000 to 30000 | 10 to 100 | 1000 to 30000 | – | – | – | –
O[C@H]1CC[C@H](n2cc(-c3ccc(CN4CCNCC4)cc3)c3cnc(Nc4cc(C(F)(F)F)cc(C(F)(F)F)c4)nc32)CC1 [Compound 27] | 100 to 1000 | < 10 | 100 to 1000 | – | – | – | –
CN1CCC(Nc2ccc(-c3cn([C@H]4CC[C@H](O)CC4)c4nc(Nc5cc(F)cc(Cl)c5)ncc34)cc2)CC1 [Compound 56] | – | – | – | < 10 | < 10 | – | –
CN1CCN(S(=O)(=O)c2ccc(-c3cn([C@H]4CC[C@H](O)CC4)c4nc(Nc5cc(F)cc(Cl)c5)ncc34)cc2)CC1 [Compound 63] | – | – | – | – | – | < 10 | < 10
CN1CCN(Cc2ccc(-c3cn([C@H]4CC[C@H](O)CC4)c4nc(Nc5cccc(C(F)(F)F)c5)ncc34)cc2)CC1 [Compound 147] | < 10 | < 10 | – | – | – | – | –
